Legend:
Test in all cases: Histone peptide microarray
Type in all cases: binding, human
PHRF1 (RP) = settings: GST-tagged PHRF1 (RP); for Array Heatmap signal, PHRF1 (RP): sheet "Array Heatmap", arrays performed twice, total replicate number n = 4
Method in brief: (§1)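 GST-PHD reader, 0.5 μM, probed on 293-peptide histone array (single/combinatorial PTMs); optimized array protocol; signal = mean ± SD, n = 4.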

DIDO1 = settings: GST-tagged DIDO1; for Array Heatmap signal, DIDO1: sheet "Array Heatmap", arrays performed twice, total replicate number n = 4
Method in brief: as §1

PHF23 = settings: GST-tagged PHF23; for Array Heatmap signal, PHF23: sheet "Array Heatmap", arrays performed twice, total replicate number n = 4
Method in brief: as §1

TAF3 = settings: GST-tagged TAF3; for Array Heatmap signal, TAF3: sheet "Array Heatmap", arrays performed twice, total replicate number n = 4
Method in brief: as §1

CHD5 (PCC) = settings: for Array Heatmap signal, CHD5 (PCC): sheet "Array Heatmap", GST-tagged CHD5 (PCC), arrays performed twice, total replicate number n = 4
Method in brief: as §1

ING3 = settings: GST-tagged ING3; for Array Heatmap signal, ING3: sheet "Array Heatmap", arrays performed twice, total replicate number n = 4
Method in brief: as §1

ING5 = settings: GST-tagged ING5; for Array Heatmap signal, ING5: sheet "Array Heatmap", arrays performed twice, total replicate number n = 4
Method in brief: as §1

CHD5 (PPCC) = settings: for Array Heatmap signal, CHD5 (PPCC): sheet "Array Heatmap", GST-tagged CHD5 (PPCC), arrays performed twice, total replicate number n = 4
Method in brief: as §1

BPTF (PB) = settings: for Array Heatmap signal, BPTF (PB): sheet "Array Heatmap", GST-tagged BPTF (PB), arrays performed twice, total replicate number n = 4
Method in brief: as §1

ING1 = settings: GST-tagged ING1; for Array Heatmap signal, ING1: sheet "Array Heatmap", arrays performed twice, total replicate number n = 4
Method in brief: as §1

PHF2 = settings: GST-tagged PHF2; for Array Heatmap signal, PHF2: sheet "Array Heatmap", arrays performed twice, total replicate number n = 4
Method in brief: as §1

BAZ2B = settings: GST-tagged BAZ2B; for Array Heatmap signal, BAZ2B: sheet "Array Heatmap", arrays performed twice, total replicate number n = 4
Method in brief: as §1

KDM7A = settings: GST-tagged KDM7A; for Array Heatmap signal, KDM7A: sheet "Array Heatmap", arrays performed twice, total replicate number n = 4
Method in brief: as §1

ING2 = settings: GST-tagged ING2; for Array Heatmap signal, ING2: sheet "Array Heatmap", arrays performed twice, total replicate number n = 4
Method in brief: as §1

KDM4C (TTP) = settings: for Array Heatmap signal, KDM4C (TTP): sheet "Array Heatmap", GST-tagged KDM4C (TTP), arrays performed twice, total replicate number n = 4
Method in brief: as §1

KDM5A (3) = settings: GST-tagged KDM5A (3); for Array Heatmap signal, KDM5A (3): sheet "Array Heatmap", arrays performed twice, total replicate number n = 4
Method in brief: as §1

KDM5B (1) = settings: GST-tagged KDM5B (1); for Array Heatmap signal, KDM5B (1): sheet "Array Heatmap", arrays performed twice, total replicate number n = 4
Method in brief: as §1

TRIM66 (PB) = settings: for Array Heatmap signal, TRIM66 (PB): sheet "Array Heatmap", GST-tagged TRIM66 (PB), arrays performed twice, total replicate number n = 4
Method in brief: as §1

KDM5A (1) = settings: GST-tagged KDM5A (1); for Array Heatmap signal, KDM5A (1): sheet "Array Heatmap", arrays performed twice, total replicate number n = 4
Method in brief: as §1

CHD4 (PPCC) = settings: for Array Heatmap signal, CHD4 (PPCC): sheet "Array Heatmap", GST-tagged CHD4 (PPCC), arrays performed twice, total replicate number n = 4
Method in brief: as §1

PHF13 = settings: GST-tagged PHF13; for Array Heatmap signal, PHF13: sheet "Array Heatmap", arrays performed twice, total replicate number n = 4
Method in brief: as §1

DPF2 (PPC2W2) = settings: for Array Heatmap signal, DPF2 (PPC2W2): sheet "Array Heatmap", GST-tagged DPF2 (PPC2W2), arrays performed twice, total replicate number n = 4
Method in brief: as §1

MORC3 (CW) = settings: for Array Heatmap signal, MORC3 (CW): sheet "Array Heatmap", GST-tagged MORC3 (CW), arrays performed twice, total replicate number n = 4
Method in brief: as §1

AIRE (PP) = settings: GST-tagged AIRE (PP); for Array Heatmap signal, AIRE (PP): sheet "Array Heatmap", arrays performed twice, total replicate number n = 4
Method in brief: as §1

PHF8 = settings: GST-tagged PHF8; for Array Heatmap signal, PHF8: sheet "Array Heatmap", arrays performed twice, total replicate number n = 4
Method in brief: as §1

KDM5B (3) = settings: GST-tagged KDM5B (3); for Array Heatmap signal, KDM5B (3): sheet "Array Heatmap", arrays performed twice, total replicate number n = 4
Method in brief: as §1

SP140L = settings: GST-tagged SP140L; for Array Heatmap signal, SP140L: sheet "Array Heatmap", arrays performed twice, total replicate number n = 4
Method in brief: as §1

ING4 = settings: GST-tagged ING4; for Array Heatmap signal, ING4: sheet "Array Heatmap", arrays performed twice, total replicate number n = 4
Method in brief: as §1

PHF21A = settings: GST-tagged PHF21A; for Array Heatmap signal, PHF21A: sheet "Array Heatmap", arrays performed twice, total replicate number n = 4
Method in brief: as §1

RAG2 = settings: GST-tagged RAG2; for Array Heatmap signal, RAG2: sheet "Array Heatmap", arrays performed twice, total replicate number n = 4
Method in brief: as §1

MLL5 = settings: GST-tagged MLL5; for Array Heatmap signal, MLL5: sheet "Array Heatmap", arrays performed twice, total replicate number n = 4
Method in brief: as §1

[1] = sheet Array Heatmap, each array performed twice, total n = 4

Substance: H3K4ac + K9me1 + K14ac + K18ac: H3 1-20
- Array Heatmap signal, PHRF1 (RP) (PHRF1 (RP)): 0.3692
- Array Heatmap signal, DIDO1 (DIDO1): 0.5412
- Array Heatmap signal, PHF23 (PHF23): 0.4792
- Array Heatmap signal, TAF3 (TAF3): 0.2619
- Array Heatmap signal, CHD5 (PCC) (CHD5 (PCC)): 0.8198
- Array Heatmap signal, ING3 (ING3): 0.4265
- Array Heatmap signal, ING5 (ING5): 0.3469
- Array Heatmap signal, CHD5 (PPCC) (CHD5 (PPCC)): 0.5431
- Array Heatmap signal, BPTF (PB) (BPTF (PB)): 0.3424
- Array Heatmap signal, ING1 (ING1): 0.4555
- Array Heatmap signal, PHF2 (PHF2): 0.368
- Array Heatmap signal, BAZ2B (BAZ2B): 0.5783
- Array Heatmap signal, KDM7A (KDM7A): 0.4836
- Array Heatmap signal, ING2 (ING2): 0.5869
- Array Heatmap signal, KDM4C (TTP) (KDM4C (TTP)): 0.5174
- Array Heatmap signal, KDM5A (3) (KDM5A (3)): 0.3935
- Array Heatmap signal, KDM5B (1) (KDM5B (1)): 0.6293
- Array Heatmap signal, TRIM66 (PB) (TRIM66 (PB)): 0.5413
- Array Heatmap signal, KDM5A (1) (KDM5A (1)): 0.4805
- Array Heatmap signal, CHD4 (PPCC) (CHD4 (PPCC)): 0.5629
- Array Heatmap signal, PHF13 (PHF13): 0.5879
- Array Heatmap signal, DPF2 (PPC2W2) (DPF2 (PPC2W2)): 0.6154
- Array Heatmap signal, MORC3 (CW) (MORC3 (CW)): 0.3311
- Array Heatmap signal, AIRE (PP) (AIRE (PP)): 0.5251
- Array Heatmap signal, PHF8 (PHF8): 0.3261
- Array Heatmap signal, KDM5B (3) (KDM5B (3)): 0.497
- Array Heatmap signal, SP140L (SP140L): 0.3469
- Array Heatmap signal, ING4 (ING4): 0.4584
- Array Heatmap signal, PHF21A (PHF21A): 0.4512
- Array Heatmap signal, RAG2 (RAG2): 0.2267
- Array Heatmap signal, MLL5 (MLL5): 0.5142

Substance: H3K4ac + K9me2 + K14ac + K18ac: H3 1-20
- Array Heatmap signal, PHRF1 (RP) (PHRF1 (RP)): 0.5426
- Array Heatmap signal, DIDO1 (DIDO1): 0.6996
- Array Heatmap signal, PHF23 (PHF23): 0.5641
- Array Heatmap signal, TAF3 (TAF3): 0.2754
- Array Heatmap signal, CHD5 (PCC) (CHD5 (PCC)): 0.8289
- Array Heatmap signal, ING3 (ING3): 0.5023
- Array Heatmap signal, ING5 (ING5): 0.3863
- Array Heatmap signal, CHD5 (PPCC) (CHD5 (PPCC)): 0.5961
- Array Heatmap signal, BPTF (PB) (BPTF (PB)): 0.3687
- Array Heatmap signal, ING1 (ING1): 0.5602
- Array Heatmap signal, PHF2 (PHF2): 0.5092
- Array Heatmap signal, BAZ2B (BAZ2B): 0.5255
- Array Heatmap signal, KDM7A (KDM7A): 0.3693
- Array Heatmap signal, ING2 (ING2): 0.6022
- Array Heatmap signal, KDM4C (TTP) (KDM4C (TTP)): 0.5332
- Array Heatmap signal, KDM5A (3) (KDM5A (3)): 0.4792
- Array Heatmap signal, KDM5B (1) (KDM5B (1)): 0.6474
- Array Heatmap signal, TRIM66 (PB) (TRIM66 (PB)): 0.6234
- Array Heatmap signal, KDM5A (1) (KDM5A (1)): 0.4994
- Array Heatmap signal, CHD4 (PPCC) (CHD4 (PPCC)): 0.5924
- Array Heatmap signal, PHF13 (PHF13): 0.6376
- Array Heatmap signal, DPF2 (PPC2W2) (DPF2 (PPC2W2)): 0.7053
- Array Heatmap signal, MORC3 (CW) (MORC3 (CW)): 0.4166
- Array Heatmap signal, AIRE (PP) (AIRE (PP)): 0.5959
- Array Heatmap signal, PHF8 (PHF8): 0.3959
- Array Heatmap signal, KDM5B (3) (KDM5B (3)): 0.5157
- Array Heatmap signal, SP140L (SP140L): 0.3786
- Array Heatmap signal, ING4 (ING4): 0.4857
- Array Heatmap signal, PHF21A (PHF21A): 0.517
- Array Heatmap signal, RAG2 (RAG2): 0.2604
- Array Heatmap signal, MLL5 (MLL5): 0.5581

Substance: H3K4ac + K14ac: H3 1-20
- Array Heatmap signal (histone peptide microarray) (PHRF1 (RP); [1]): 0.5779
- Array Heatmap signal (histone peptide microarray) (DIDO1; [1]): 0.6468
- Array Heatmap signal (histone peptide microarray) (PHF23; [1]): 0.5688
- Array Heatmap signal (histone peptide microarray) (TAF3; [1]): 0.2918
- Array Heatmap signal (histone peptide microarray) (CHD5 (PCC); GST-tagged CHD5 (PCC = PHD + Dual Chromodomain), sheet Array Heatmap, each array performed twice, total n = 4): 0.8648
- Array Heatmap signal (histone peptide microarray) (ING3; [1]): 0.5142
- Array Heatmap signal (histone peptide microarray) (ING5; [1]): 0.3447
- Array Heatmap signal (histone peptide microarray) (CHD5 (PPCC); GST-tagged CHD5 (PPCC = Dual PHD + Dual Chromodomain), sheet Array Heatmap, each array performed twice, total n = 4): 0.5648
- Array Heatmap signal (histone peptide microarray) (BPTF (PB); GST-tagged BPTF (PB = PHD + Bromodomain), sheet Array Heatmap, each array performed twice, total n = 4): 0.4507
- Array Heatmap signal (histone peptide microarray) (ING1; [1]): 0.5034
- Array Heatmap signal (histone peptide microarray) (PHF2; [1]): 0.5218
- Array Heatmap signal (histone peptide microarray) (BAZ2B; [1]): 0.8376
- Array Heatmap signal (histone peptide microarray) (KDM7A; [1]): 0.4116
- Array Heatmap signal (histone peptide microarray) (ING2; [1]): 0.6101
- Array Heatmap signal (histone peptide microarray) (KDM4C (TTP); GST-tagged KDM4C (TTP = Tandem Tudor domain + PHD), sheet Array Heatmap, each array performed twice, total n = 4): 0.505
- Array Heatmap signal (histone peptide microarray) (KDM5A (3); [1]): 0.4971
- Array Heatmap signal (histone peptide microarray) (KDM5B (1); [1]): 0.6896
- Array Heatmap signal (histone peptide microarray) (TRIM66 (PB); GST-tagged TRIM66 (PB = PHD + Bromodomain), sheet Array Heatmap, each array performed twice, total n = 4): 0.6492
- Array Heatmap signal (histone peptide microarray) (KDM5A (1); [1]): 0.4998
- Array Heatmap signal (histone peptide microarray) (CHD4 (PPCC); GST-tagged CHD4 (PPCC = Dual PHD + Dual Chromodomain), sheet Array Heatmap, each array performed twice, total n = 4): 0.5746
- Array Heatmap signal (histone peptide microarray) (PHF13; [1]): 0.6284
- Array Heatmap signal (histone peptide microarray) (DPF2 (PPC2W2); GST-tagged DPF2 (PPC2W2 = Dual PHD + C2W2-type Zn-finger), sheet Array Heatmap, each array performed twice, total n = 4): 0.6791
- Array Heatmap signal (histone peptide microarray) (MORC3 (CW); GST-tagged MORC3 (CW = CW-type Zn-finger), sheet Array Heatmap, each array performed twice, total n = 4): 0.433
- Array Heatmap signal (histone peptide microarray) (AIRE (PP); [1]): 0.4945
- Array Heatmap signal (histone peptide microarray) (PHF8; [1]): 0.3555
- Array Heatmap signal (histone peptide microarray) (KDM5B (3); [1]): 0.5625
- Array Heatmap signal (histone peptide microarray) (SP140L; [1]): 0.3353
- Array Heatmap signal (histone peptide microarray) (ING4; [1]): 0.4509
- Array Heatmap signal (histone peptide microarray) (PHF21A; [1]): 0.4619
- Array Heatmap signal (histone peptide microarray) (RAG2; [1]): 0.2771
- Array Heatmap signal (histone peptide microarray) (MLL5; [1]): 0.5464

From publication PMC6979384, “Characterization of the plant homeodomain (PHD) reader family for their histone tail interactions” (Epigenetics & Chromatin, 2020)
